Data on 5 compounds can be found in ChEMBL document CHEMBL3217749, “Design and synthesis of novel pyranone-based insulin sensitizers exhibiting in vivo hepatoprotective activity” (2013).

Active and inactive are the calls of the source. No cut-off for these calls is given here.

Assay [1] has as its system Mus musculus. The assay can be described thus: Hepatoprotective activity against thioacetamide-induced liver toxicity in Swiss albino mouse assessed as protection in serum ALP activity at 20 mg/kg administered for 7 days started 1 day after thioacetamide challenge measured on day 8. Type of assay: functional.
The test system of assay [2] is Mus musculus. Kind of assay: Hepatoprotective activity against thioacetamide-induced liver toxicity in Swiss albino mouse assessed as protection in serum AST activity at 20 mg/kg administered for 7 days started 1 day after thioacetamide challenge measured on day 8. In kind it is functional.
Assay [3] in a line: Upregulation of FAS protein expression in differentiated mouse 3T3L1 cells after 7 days by western blot analysis. In kind it is functional, cell-based. The following applies: 3T3-L1. (A western blot detects proteins with antibodies after separation by electrophoresis.)
Assay [4] has as its system Mus musculus. Kind of assay: Hepatoprotective activity against thioacetamide-induced liver toxicity in Swiss albino mouse assessed as protection in serum ALT activity at 20 mg/kg administered for 7 days started 1 day after thioacetamide challenge measured on day 8. Type of assay: functional.
Assay [5] concerns 3T3-L1. The assay can be described thus: Induction of insulin-stimulated 2-deoxy-D-[3H]-glucose uptake in differentiated mouse 3T3L1 cells at 10 uM after 24 hrs by scintillation counting analysis. In kind it is functional, cell-based.
Assay [6] can be described thus: Upregulation of aP2 protein expression in differentiated mouse 3T3L1 cells after 7 days by western blot analysis. In kind it is functional, cell-based. The following applies: 3T3-L1.
For assay [7], the system named is 3T3-L1. Kind of assay: Inhibition of chronic insulin-stimulated insulin resistance in differentiated mouse 3T3L1 cells assessed as 2-deoxy-D-[3H]-glucose uptake after 24 hrs by scintillation counting analysis. Type of assay: functional, cell-based.
Assay [8] concerns 3T3-L1. Kind of assay: Induction of adipogenesis in mouse 3T3L1 cells assessed as lipid accumulation at 10 uM on day 8 by oil Red O staining. In kind it is functional, cell-based.
In assay [9] the test system is Mus musculus. The assay can be described thus: Hepatoprotective activity against thioacetamide-induced liver toxicity in Swiss albino mouse assessed as protection in serum total bilirubin activity at 20 mg/kg administered for 7 days started 1 day after thioacetamide challenge measured on day 8. Type of assay: functional.
Assay [10] has as its system Mus musculus. The assay can be described thus: Hepatoprotective activity against thioacetamide-induced liver toxicity in Swiss albino mouse assessed as protection against histological damage at 20 mg/kg administered for 7 days started 1 day after thioacetamide challenge measured on day 8 by hematoxylin-eosin staining. In kind it is functional, organism-based. Also on record: dose 20 mg/kg.

The test system of assay [11] is Mus musculus. Kind of assay: Hepatoprotective activity against thioacetamide-induced liver toxicity in Swiss albino mouse assessed as protection in serum ALT activity at 20 mg/kg, po administered for 7 days started 1 day after thioacetamide challenge measured on day 8. Type of assay: functional, organism-based. Also on record: dose 20 mg/kg.
For assay [12], the system named is Mus musculus. Kind of assay: Hepatoprotective activity against thioacetamide-induced liver toxicity in Swiss albino mouse assessed as protection against histological damage at 20 mg/kg, po administered for 7 days started 1 day after thioacetamide challenge measured on day 8 by hematoxylin-eosin staining. Type of assay: functional, organism-based. Also on record: dose 20 mg/kg.

Assay [13] has as its system Mus musculus. Kind of assay: Hepatoprotective activity against thioacetamide-induced liver toxicity in Swiss albino mouse assessed as protection in serum AST activity at 20 mg/kg, po administered for 7 days started 1 day after thioacetamide challenge measured on day 8. In kind it is functional, organism-based. Also on record: dose 20 mg/kg.
Assay [14] has as its system Mus musculus. Kind of assay: Hepatoprotective activity against thioacetamide-induced liver toxicity in Swiss albino mouse assessed as protection in serum total bilirubin activity at 20 mg/kg, po administered for 7 days started 1 day after thioacetamide challenge measured on day 8. In kind it is functional, organism-based. Also on record: dose 20 mg/kg.
Assay [15] relates to Mus musculus. The assay can be described thus: Hepatoprotective activity against thioacetamide-induced liver toxicity in Swiss albino mouse assessed as protection in serum ALP activity at 20 mg/kg, po administered for 7 days started 1 day after thioacetamide challenge measured on day 8. In kind it is functional, organism-based. Also on record: dose 20 mg/kg.

`COc1ccc(-c2cc(N(C)CCOC(=O)Cc3ccc(O)cc3)c(C#N)c(=O)o2)cc1`: the Activity in the assay with Mus musculus [1] was found to be 100%; in the assay on Mus musculus [2], 60%; in the assay with Mus musculus [4], 92%; in the assay on Mus musculus [9] it was 100%. In addition, the result (in [3]; with 3T3-L1 [5]; in assay [6]; with 3T3-L1 [8]; with Mus musculus [10]) was Active. For the same compound, in the assay with 3T3-L1 [7], the “Inhibition activity (active/not active)” value is “inactive”.
Consider `CN(CCOc1ccc(CC2SC(=O)NC2=O)cc1)c1ccccn1` (centres undefined), for which the outcome (in assay [3]; in the assay on 3T3-L1 [5]; in [6]) was Active. Further, the “Inhibition activity (active/not active)” value with 3T3-L1 [7] is “Active”.
Turning to `COc1ccc(-c2cc(N(C)CCN3C(=O)SC(Cc4cccc(O)c4)C3=O)c(C#N)c(=O)o2)cc1` (centres undefined), the Activity with Mus musculus [1] came to 100%; in the assay with Mus musculus [2], 75%; with Mus musculus [4] it was 89%; in the assay on Mus musculus [9], 100%. Also, the result (in assay [3]; with 3T3-L1 [5]; in [6]; in the assay on 3T3-L1 [8]; with Mus musculus [10]) was Active. In addition, the “Inhibition activity (active/not active)” value with 3T3-L1 [7] is “inactive”.
Consider SILYMARIN, for which the Activity with Mus musculus [11] turned out to be 93%; with Mus musculus [13] it was 95%; in the assay on Mus musculus [14] it was 100%; in the assay with Mus musculus [15], 100%. For the same compound, in the assay with Mus musculus [12], the result was Active.
For the compound `CN(CCBr)c1cc(-c2ccc(Cl)cc2)oc(=O)c1C#N`, the Activity with Mus musculus [1] turned out to be 100%; in the assay with Mus musculus [2] it was 87%; with Mus musculus [4] it was 100%; with Mus musculus [9], 100%. Further, the outcome (in assay [3]; in the assay with 3T3-L1 [5]; in the assay with 3T3-L1 [8]; in the assay on Mus musculus [10]) was Active. The outcome in assay [6] was inactive. The “Inhibition activity (active/not active)” value in the assay with 3T3-L1 [7] was “Active”.
